Positions count from the first letter of the chain named.
Legend:
Assay in all cases: Calcium assay, HEK293/Gα16 cells, GAL2R mutants
Format in all cases: cell-based
GAL2R mutants [1] = target: T1, GAL2R mutants (Homo sapiens, UniProt O43603, F264A); conditions: GAL2R F264ECL3A
T1 construct: expressed in transfected cells; host or cells: HEK293
T1 sequence (O43603 1-387 F264A): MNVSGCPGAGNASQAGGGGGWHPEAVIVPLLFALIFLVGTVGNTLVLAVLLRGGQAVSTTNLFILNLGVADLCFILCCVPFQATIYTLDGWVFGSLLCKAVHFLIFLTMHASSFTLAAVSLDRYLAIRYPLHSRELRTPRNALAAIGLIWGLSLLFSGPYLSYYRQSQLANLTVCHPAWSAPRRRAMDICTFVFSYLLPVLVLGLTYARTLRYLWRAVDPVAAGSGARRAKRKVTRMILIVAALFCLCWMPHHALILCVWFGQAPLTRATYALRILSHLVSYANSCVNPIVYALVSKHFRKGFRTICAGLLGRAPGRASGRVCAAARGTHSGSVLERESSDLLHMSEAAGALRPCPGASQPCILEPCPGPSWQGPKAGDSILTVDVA

GAL2R mutants [2] = target: T2, GAL2R mutants (Homo sapiens, UniProt O43603, I256A); conditions: GAL2R I2566.55A
T2 construct: expressed in transfected cells; host or cells: HEK293
T2 sequence (O43603 1-387 I256A): T1 sequence (O43603 1-387 F264A) with I256A, A264F

GAL2R mutants [3] = target: T3, GAL2R mutants (Homo sapiens, UniProt O43603, V259A); conditions: GAL2R V2596.58A
T3 construct: expressed in transfected cells; host or cells: HEK293
T3 sequence (O43603 1-387 V259A): T1 sequence (O43603 1-387 F264A) with V259A, A264F

GAL2R mutants [4] = target: T4, GAL2R mutants (Homo sapiens, UniProt O43603, Y164A); conditions: GAL2R Y1644.64A
T4 construct: expressed in transfected cells; host or cells: HEK293
T4 sequence (O43603 1-387 Y164A): T1 sequence (O43603 1-387 F264A) with Y164A, A264F

GAL2R mutants [5] = target: T5, GAL2R mutants (Homo sapiens, UniProt O43603, Y86A); conditions: GAL2R Y862.65A
T5 construct: expressed in transfected cells; host or cells: HEK293
T5 sequence (O43603 1-387 Y86A): T1 sequence (O43603 1-387 F264A) with Y86A, A264F

[6] = response of 100 μM spexin compared to WT, mean ± S.E.M.
[7] = response of 100 μM spexin compared to WT

Substance: spexin
- Emax (GAL2R mutants [1]; [6]): 40.26±1.3%
- Emax (GAL2R mutants [1]; spexin, replicate 1): 42.8699%
- Emax (GAL2R mutants [1]; spexin, replicate 2): 39.5775%
- Emax (GAL2R mutants [1]; spexin, replicate 3): 38.3476%
- Emax (GAL2R mutants [2]; [6]): 67.24±0.5%
- Emax (GAL2R mutants [2]; spexin, replicate 1): 66.4324%
- EC50 (GAL2R mutants [2]; spexin, replicate 2): 437.9 nM
- Emax (GAL2R mutants [2]; spexin, replicate 2): 67.278%
- EC50 (GAL2R mutants [2]; spexin, replicate 3): 924.3 nM
- Emax (GAL2R mutants [2]; spexin, replicate 3): 68.0243%
- Emax (GAL2R mutants [3]; [6]): 68.4±5.7%
- EC50 (GAL2R mutants [3]; spexin, replicate 1): 1328 nM
- Emax (GAL2R mutants [3]; spexin, replicate 1): 60.401%
- EC50 (GAL2R mutants [3]; spexin, replicate 2): 6622 nM
- Emax (GAL2R mutants [3]; spexin, replicate 2): 65.4165%
- EC50 (GAL2R mutants [3]; spexin, replicate 3): 6153 nM
- Emax (GAL2R mutants [3]; spexin, replicate 3): 79.3756%
- Emax (GAL2R mutants [4]; [7]): NR (NR, no response, refers to response < 10% compared to WT receptor (spexin at 100 μM))
- Emax (GAL2R mutants [4]; spexin, replicate 1): no response
- Emax (GAL2R mutants [4]; spexin, replicate 2): no response
- Emax (GAL2R mutants [4]; spexin, replicate 3): no response
- Emax (GAL2R mutants [5]; [7]): NR (NR, no response, refers to response < 10% compared to WT receptor (spexin at 100 μM))
- Emax (GAL2R mutants [5]; spexin, replicate 1): no response
- Emax (GAL2R mutants [5]; spexin, replicate 2): no response
- Emax (GAL2R mutants [5]; spexin, replicate 3): no response

From article PMC8924211 (Nature Communications, 2022)
